We go through seven molecules from DBAASP.

≈ marks a conversion by molar mass, not a printed value.

Holding throughout (assay): ≥ marks a high value that may be exact or a test limit, other limits are often not marked, values filed in µg/mL are converted to µM
In assay [1] the test system is Staphylococcus aureus USA 300.
The test system of assay [2] is Staphylococcus epidermidis ATCC 35984.
In assay [3] the test system is Acinetobacter baumannii.
Assay [4] has as its system Enterobacter cloacae 2524.
In assay [5] the test system is Escherichia coli 170.
The subject of assay [6] is Escherichia coli ATCC 25922.
Assay [7] has as its system Klebsiella pneumoniae 913.
Assay [8] relates to Pseudomonas aeruginosa 4677.
Assay [9] has as its system Escherichia coli KF111.
Assay [10] has as its system Escherichia coli KF130.
Assay [11] relates to Escherichia coli UB1005.
Assay [12] has as its system Pseudomonas aeruginosa ATCC 27853.
For assay [13], the system named is Pseudomonas aeruginosa H374.
In assay [14] the test system is Pseudomonas aeruginosa H744.
Assay [15] has as its system Pseudomonas aeruginosa K799.
Assay [16] relates to Salmonella enterica subsp. enterica serovar Typhimurium ATCC 14028s.
The subject of assay [17] is Staphylococcus epidermidis.
In assay [18] the test system is Candida albicans ATCC 90028.
Assay [19] concerns Escherichia coli.
The test system of assay [20] is Listeria innocua.
The subject of assay [21] is Micrococcus luteus.
The subject of assay [22] is Pseudomonas aeruginosa ATCC 9027.
Assay [23] concerns Salmonella enterica subsp. enterica serovar Enteritidis.
Assay [24] relates to Staphylococcus aureus USA 100.
Assay [25] concerns Staphylococcus aureus.
The subject of assay [26] is Staphylococcus aureus ATCC 25923.
For assay [27], the system named is Staphylococcus aureus ATCC 33591.
Assay [28] relates to Bacillus subtilis ATCC 6633.
The subject of assay [29] is Candida albicans ATCC 64550.
In assay [30] the test system is Klebsiella pneumoniae ATCC 10031.
The subject of assay [31] is Micrococcus luteus ATCC 10240.
For assay [32], the system named is Salmonella enterica subsp. enterica serovar Typhimurium ATCC 14028.
The test system of assay [33] is Shigella dysenteriae ATCC 9752.
The test system of assay [34] is Staphylococcus aureus ATCC 6538P.
In assay [35] the test system is Staphylococcus aureus TK784.
In assay [36] the test system is Staphylococcus epidermidis ATCC 12228.

What is called MIC is the least concentration at which growth counts as inhibited. Turning to `CC[C@H](C)[C@H](NC(=O)CN)C(=O)N[C@H](C(=O)N[C@@H](CCCCN)C(=O)N[C@H](C(=O)N[C@H](C(=O)N[C@@H](CCCCN)C(=O)N[C@@H](CO)C(=O)N[C@@H](CC(C)C)C(=O)N[C@H](C(=O)N[C@@H](CCC(=O)O)C(=O)N[C@@H](CCC(N)=O)C(=O)N[C@@H](Cc1ccccc1)C(=O)N[C@H](C(=O)NCC(=O)N[C@@H](CCCCN)C(=O)O)[C@@H](C)O)[C@@H](C)CC)[C@@H](C)CC)C(C)C)[C@@H](C)CC` [GIIKVIKSLIEQFTGK], the results for the MIC in [1] and in [2] were at least 64 µM and at least 42 µM, respectively.
For `CC[C@H](C)[C@H](N)C(=O)N[C@@H](C)C(=O)N[C@@H](CO)C(=O)N[C@@H](CCCCN)C(=O)N[C@H](C(=O)N[C@@H](C)C(=O)N[C@@H](CC(N)=O)C(=O)N[C@H](C(=O)N[C@H](C(=O)N[C@@H](CCC(N)=O)C(=O)N[C@@H](CCCCN)C(=O)N[C@@H](CC(C)C)C(=O)N[C@@H](CCCCN)C(=O)N[C@@H](CCCN=C(N)N)C(=O)N[C@@H](CCCCN)C(=O)N[C@@H](C)C(=O)N[C@@H](CCCCN)C(=O)N[C@@H](CC(N)=O)C(=O)N[C@@H](C)C(=O)N[C@H](C(=O)O)C(C)C)C(C)C)[C@@H](C)O)C(C)C` [IASKVANTVQKLKRKAKNAV], the MIC in assay [3] is at least 50 µM; in assay [4], at least 50 µM; in [5], at least 50 µM; in [6] it was 25 µM (≈ 54.2 µg/mL); in assay [7] it was at least 50 µM; in assay [8], at least 50 µM.
As to `CC[C@H](C)[C@H](NC(=O)[C@@H]1CCCN1C(=O)[C@H](CCCCN)NC(=O)[C@H](CC(C)C)NC(=O)[C@H](C)NC(=O)[C@@H](NC(=O)[C@H](Cc1cnc[nH]1)NC(=O)[C@H](CC(C)C)NC(=O)[C@@H](NC(=O)[C@@H](NC(=O)[C@H](CCCN=C(N)N)NC(=O)[C@H](C)NC(=O)[C@@H]1CCCN1C(=O)[C@H](CO)NC(=O)[C@H](CCCCN)NC(=O)[C@H](Cc1ccccc1)NC(=O)[C@@H](NC(=O)[C@H](CCCCN)NC(=O)[C@H](CC(C)C)NC(=O)[C@H](Cc1ccccc1)NC(=O)[C@H](CO)NC(=O)[C@H](CCCCN)NC(=O)[C@H](Cc1c[nH]c2ccccc12)NC(=O)[C@@H](N)CCCCN)[C@@H](C)O)[C@@H](C)O)C(C)C)[C@@H](C)O)C(=O)N[C@@H](CO)C(=O)N[C@@H](CO)C(=O)O` [KWKSFLKTFKSPARTVLHTALKPISS], the MIC is 1.35 µM (≈ 4 µg/mL) in assay [9]; 2.69 µM (≈ 8 µg/mL) in assay [10]; 1.35 µM (≈ 4 µg/mL) in assay [11]; 4 µM (≈ 11.9 µg/mL) in [12]; 10.8 µM (≈ 32 µg/mL) in assay [13]; 10.8 µM (≈ 32 µg/mL) in assay [14]. Besides, the MIC in assay [15] was determined as 10.8 µM (≈ 32 µg/mL); in assay [16] it was 10.8 µM (≈ 32 µg/mL); in assay [17], 21.5 µM (≈ 64 µg/mL).
`CC[C@H](C)[C@H](NC(=O)[C@@H]1CCCN1C(=O)[C@H](CCCCN)NC(=O)[C@H](CC(C)C)NC(=O)[C@H](C)NC(=O)[C@@H](NC(=O)[C@H](Cc1ccc(O)cc1)NC(=O)[C@H](Cc1ccccc1)NC(=O)[C@@H](NC(=O)[C@@H](NC(=O)[C@H](CCCCN)NC(=O)[C@@H](NC(=O)[C@@H]1CCCN1C(=O)[C@H](CO)NC(=O)[C@H](CCCCN)NC(=O)[C@H](CC(C)C)NC(=O)[C@@H](NC(=O)[C@H](CCCCN)NC(=O)[C@H](CC(C)C)NC(=O)[C@H](Cc1ccccc1)NC(=O)[C@H](CO)NC(=O)[C@H](CCCCN)NC(=O)[C@H](Cc1c[nH]c2ccccc12)NC(=O)[C@@H](N)CCCCN)[C@@H](C)O)C(C)C)[C@@H](C)O)C(C)C)[C@@H](C)O)C(=O)N[C@@H](CO)C(=O)N[C@@H](CO)C(=O)O` [KWKSFLKTLKSPVKTVFYTALKPISS]: the MIC amounted to 0.667 µM (≈ 2 µg/mL) in assay [9]; 0.667 µM (≈ 2 µg/mL) in assay [10]; 0.667 µM (≈ 2 µg/mL) in [11]; 5.34 µM (≈ 16 µg/mL) in assay [13]; 5.34 µM (≈ 16 µg/mL) in [14]; 5.34 µM (≈ 16 µg/mL) in [15]. The figures for the MIC in [16] and in assay [17] were 5.34 µM (≈ 16 µg/mL) and 10.7 µM (≈ 32 µg/mL), respectively.
Consider `NCCCCC(N)C(=O)NC(Cc1ccc(O)cc1)C(=O)NC(CCCN=C(N)N)C(=O)O` (centres undefined) [KYR], for which the MIC in assay [18] was at least 100 µM; in assay [19], 1 µM (≈ 0.466 µg/mL); in [20], 1 µM (≈ 0.466 µg/mL); in [21], 2 µM (≈ 0.931 µg/mL); in assay [22] it was over 100 µM; in [23], 1 µM (≈ 0.466 µg/mL). Also, the values for the MIC in [24], in assay [1] and in assay [25] were at least 100 µM, at least 100 µM and 1 µM (≈ 0.466 µg/mL), respectively.
Turning to `CC[C@H](C)[C@H](NC(=O)[C@H](CCCCN)NC(=O)[C@@H](NC(=O)[C@H](Cc1ccccc1)NC(=O)[C@H](C)NC(=O)[C@H](CCCCN)NC(=O)CNC(=O)[C@H](Cc1ccccc1)NC(=O)[C@H](CCCCN)NC(=O)[C@H](CCCCN)NC(=O)[C@H](C)NC(=O)[C@H](CCCCN)NC(=O)[C@H](CCCCN)NC(=O)[C@@H](N)CC(C)C)C(C)C)C(=O)N[C@@H](CC(C)C)C(=O)N[C@@H](CCCCN)C(=O)N[C@@H](CCCCN)C(N)=O` [LKKAKKFGKAFVKILKK], the MIC in assay [12] was 1.43 µM (≈ 2.83 µg/mL); in [26], over 259 µM; in assay [27], at least 259 µM; in [2], 8.1 µM (≈ 16 µg/mL).
Take `CC(C)C[C@H](NC(=O)[C@H](Cc1c[nH]c2ccccc12)NC(=O)[C@H](CCCCN)NC(=O)[C@H](CC(C)C)NC(=O)[C@H](CC(C)C)NC(=O)[C@H](Cc1c[nH]c2ccccc12)NC(=O)[C@H](CCCCN)NC(=O)[C@H](CC(C)C)NC(=O)[C@@H](N)CC(C)C)C(=O)N[C@@H](CCCCN)C(=O)N[C@@H](CCCCN)C(N)=O` [LLKWLLKWLKK]: the MIC is 0.885 µM (≈ 1.3 µg/mL) in assay [28]; at least 100 µM in assay [29]; 6.81 µM (≈ 9.99 µg/mL) in [6]; 13.6 µM (≈ 20 µg/mL) in assay [30]; 0.885 µM (≈ 1.3 µg/mL) in assay [31]; 6.81 µM (≈ 9.99 µg/mL) in assay [12]. The MIC in assay [32] was determined as 27.2 µM (≈ 40 µg/mL); in assay [33], 6.81 µM (≈ 9.99 µg/mL); in assay [34], 0.885 µM (≈ 1.3 µg/mL); in assay [35] it was 3.4 µM (≈ 5 µg/mL); in [36], 0.885 µM (≈ 1.3 µg/mL).
